Measurements taken from patent publication US7875647B2, “Heteroaryl-pyrazole derivatives as cannabinoid CB1 receptor antagonists” (Green Cross Corporation, priority 2006, dated 2011).

target: T1, Cannabinoid-1 receptor (CB1R) (Rattus norvegicus, UniProt P20272); assay: Cannabinoid-1 receptor (CB1R) binding affinity assay ([3H]CP-55940, rat CB-1 receptor binding protocol); settings: IC50(nM), brain tissue of SD rats, [3H]CP-55940, 30° C. 60 min
T1 construct: The tissue obtained from the brain of SD rats was homogenized; from tissue; host or cells: brain of SD rats (membrane pellet of the homogenate)
T1 sequence (P20272 whole entry): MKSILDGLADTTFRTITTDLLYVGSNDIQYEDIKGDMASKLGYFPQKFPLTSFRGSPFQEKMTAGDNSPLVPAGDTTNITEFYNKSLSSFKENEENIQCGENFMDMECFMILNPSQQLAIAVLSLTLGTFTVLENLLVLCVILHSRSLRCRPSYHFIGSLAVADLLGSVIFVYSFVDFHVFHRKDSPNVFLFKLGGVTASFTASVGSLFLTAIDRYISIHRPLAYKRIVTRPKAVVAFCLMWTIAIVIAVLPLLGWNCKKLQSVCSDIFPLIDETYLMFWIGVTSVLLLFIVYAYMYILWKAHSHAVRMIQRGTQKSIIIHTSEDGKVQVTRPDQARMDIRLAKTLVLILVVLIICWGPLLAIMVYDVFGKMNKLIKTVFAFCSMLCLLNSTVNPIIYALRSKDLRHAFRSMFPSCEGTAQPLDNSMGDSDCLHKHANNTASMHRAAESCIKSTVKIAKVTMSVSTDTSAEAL

CC(F)c1c(-c2nnc(C(C)(C)C)s2)nn(-c2ccc(Cl)cc2Cl)c1-c1ccc(Br)cc1 (stereo not shown) [Example 530, 2-(5-(4-bromophenyl)-1-(2,4-dichlorophenyl)-4-(1-fluoroethyl)-1H-pyrazol-3-yl)-5-tert-butyl-1,3,4-thiadiazole] was tested. Which IC50 did it give?
The IC50 was 11.8 nM.

How did the IC50 turn out when COC(=O)NC(C)c1c(-c2nnc(C(C)(C)C)s2)nn(-c2ccc(Cl)cc2Cl)c1-c1ccc(Br)cc1 (stereo not shown) [Example 532, Methyl 1-(5-(4-bromophenyl)-3-(5-tert-butyl-1,3,4-thiadiazol-2-yl)-1-(2,4-dichlorophenyl)-1H-pyrazol-4-yl)ethylcarbamate] was run?
Its IC50 is 8.75 nM.

same assay, conditions: brain tissue of SD rats, [3H]CP-55940, 30° C. 60 min; read-out: IC50

How did the IC50 turn out when COCc1c(-c2nnc(C(C)(C)C)s2)nn(-c2ccc(Cl)cc2Cl)c1-c1ccc(Br)cc1 [Example 524, 2-(5-(4-bromophenyl)-1-(2,4-dichlorophenyl)-4-(methoxymethyl)-1H-pyrazol-3-yl)-5-tert-butyl-1,3,4-thiadiazole] was run?
The IC50 was 8.31 nM.

CC(C)(C)c1nnc(-c2nn(-c3ccc(Cl)cc3Cl)c(-c3ccc(Br)cc3)c2CF)s1 [Example 525, 2-(5-(4-bromophenyl)-1-(2,4-dichlorophenyl)-4-(fluoromethyl)-1H-pyrazol-3-yl)-5-tert-butyl-1,3,4-thiadiazole] was tested. Which IC50 did it give?
The IC50 was 8.93 nM.

CC(C)(C)c1nnc(-c2nn(-c3ccc(Cl)cc3Cl)c(-c3ccc(Br)cc3)c2COc2ccc(C(F)(F)F)cn2)s1 [Example 526, 2-(5-(4-bromophenyl)-1-(2,4-dichlorophenyl)-4-((5-(trifluoromethyl)pyridin-2-yloxy)methyl)-1H-pyrazol-3-yl)-5-tert-butyl-1,3,4-thiadiazole] was tested. Which IC50 did it give?
The IC50 was 31.3 nM.

For CC(C)(C)c1nnc(-c2nn(-c3ccc(Cl)cc3Cl)c(-c3ccc(Br)cc3)c2C=O)s1 [Example 527, 5-(4-bromophenyl)-3-(5-tert-butyl-1,3,4-thiadiazol-2-yl)-1-(2,4-dichlorophenyl)-1H-pyrazole-4-carbaldehyde], which IC50 is on record?
Its IC50 is 10.1 nM.

Which IC50 does the source give for CC(O)c1c(-c2nnc(C(C)(C)C)s2)nn(-c2ccc(Cl)cc2Cl)c1-c1ccc(Br)cc1 (stereo not shown) [Example 528, 1-(5-(4-bromophenyl)-3-(5-tert-butyl-1,3,4-thiadiazol-2-yl)-1-(2,4-dichlorophenyl)-1H-pyrazol-4-yl)ethanol] here?
The IC50 was 6.47 nM.

For C=Cc1c(-c2nnc(C(C)(C)C)s2)nn(-c2ccc(Cl)cc2Cl)c1-c1ccc(Br)cc1 [Example 531, 2-(5-(4-bromophenyl)-1-(2,4-dichlorophenyl)-4-vinyl-1H-pyrazol-3-yl)-5-tert-butyl-1,3,4-thiadiazole], which IC50 is on record?
The IC50 was 20.6 nM.

CC(=O)c1c(-c2nnc(C(C)(C)C)s2)nn(-c2ccc(Cl)cc2Cl)c1-c1ccc(Br)cc1 [Example 533, 1-(5-(4-bromophenyl)-3-(5-tert-butyl-1,3,4-thiadiazol-2-yl)-1-(2,4-dichlorophenyl)-1H-pyrazol-4-yl)ethanone] was tested. Which IC50 did it give?
Its IC50 is 6.03 nM.

C=C(C)c1c(-c2nnc(C(C)(C)C)s2)nn(-c2ccc(Cl)cc2Cl)c1-c1ccc(Br)cc1 [Example 535, 2-(5-(4-bromophenyl)-1-(2,4-dichlorophenyl)-4-(prop-1-en-2-yl)-1H-pyrazol-3-yl)-5-tert-butyl-1,3,4-thiadiazole] was tested. Which IC50 did it give?
The IC50 was 12 nM.

With Clc1ccc(-c2c(Cl)c(-c3nnc(C4CCC4)s3)nn2-c2ccc(Cl)cc2Cl)cc1 [Example 536, 2-(4-chloro-5-(4-chlorophenyl)-1-(2,4-dichlorophenyl)-1H-pyrazol-3-yl)-5-cyclobutyl-1,3,4-thiadiazole] as the compound, how does the IC50 read?
The IC50 was 199 nM.

With CCC(C)(C)c1nnc(-c2nn(-c3ccc(Cl)cc3Cl)c(-c3ccc(Cl)cc3)c2Cl)s1 [Example 537, 2-(4-chloro-5-(4-chlorophenyl)-1-(2,4-dichlorophenyl)-1H-pyrazol-3-yl)-5-tert-pentyl-1,3,4-thiadiazole] as the compound, how does the IC50 read?
The IC50 was 127 nM.

With Clc1ccc(-c2c(Cl)c(-c3nnc(C4CCCCC4)s3)nn2-c2ccc(Cl)cc2Cl)cc1 [Example 538, 2-(4-chloro-5-(4-chlorophenyl)-1-(2,4-dichlorophenyl)-1H-pyrazol-3-yl)-5-cyclohexyl-1,3,4-thiadiazole] as the compound, how does the IC50 read?
The IC50 was 653 nM.

CCC(C)c1nnc(-c2nn(-c3ccc(Cl)cc3Cl)c(-c3ccc(Cl)cc3)c2Cl)s1 (stereo not shown) [Example 539, 2-sec-butyl-5-(4-chloro-5-(4-chlorophenyl)-1-(2,4-dichlorophenyl)-1H-pyrazol-3-yl)-1,3,4-thiadiazole] was tested. Which IC50 did it give?
The IC50 was 102 nM.

For CC(C)(C)c1nnc(-c2nn(-c3ccc(Cl)cc3Cl)c(-c3ccc(Cl)cc3)c2Cl)s1 [Example 540, 2-tert-butyl-5-(4-chloro-5-(4-chlorophenyl)-1-(2,4-dichlorophenyl)-1H-pyrazol-3-yl)-1,3,4-thiadiazole], which IC50 is on record?
The IC50 was 98.1 nM.

How did the IC50 turn out when CC(C)(C)c1nnc(-c2nn(-c3ccc(Cl)cc3Cl)c(-c3ccc(Cl)cc3)c2Br)s1 [Example 541, 2-(4-bromo-5-(4-chlorophenyl)-1-(2,4-dichlorophenyl)-1H-pyrazol-3-yl)-5-tert-butyl-1,3,4-thiadiazole] was run?
Its IC50 is 23.1 nM.

Which IC50 does the source give for CCC(C)c1nnc(-c2nn(-c3ccc(Cl)cc3Cl)c(-c3ccc(Cl)cc3)c2Br)s1 (stereo not shown) [Example 542, 2-(4-bromo-5-(4-chlorophenyl)-1-(2,4-dichlorophenyl)-1H-pyrazol-3-yl)-5-sec-butyl-1,3,4-thiadiazole] here?
The IC50 was 51.9 nM.

Clc1ccc(-c2c(Br)c(-c3nnc(C4CCC4)s3)nn2-c2ccc(Cl)cc2Cl)cc1 [Example 543, 2-(4-bromo-5-(4-chlorophenyl)-1-(2,4-dichlorophenyl)-1H-pyrazol-3-yl)-5-cyclobutyl-1,3,4-thiadiazole] was tested. Which IC50 did it give?
The IC50 was 70.3 nM.

For Clc1ccc(-c2c(Br)c(-c3nnc(C4CCCCC4)s3)nn2-c2ccc(Cl)cc2Cl)cc1 [Example 544, 2-(4-bromo-5-(4-chlorophenyl)-1-(2,4-dichlorophenyl)-1H-pyrazol-3-yl)-5-cyclohexyl-1,3,4-thiadiazole], which IC50 is on record?
Its IC50 is 91.2 nM.

Which IC50 does the source give for CCC(C)(C)c1nnc(-c2nn(-c3ccc(Cl)cc3Cl)c(-c3ccc(Cl)cc3)c2Br)s1 [Example 545, 2-(4-bromo-5-(4-chlorophenyl)-1-(2,4-dichlorophenyl)-1H-pyrazol-3-yl)-5-tert-pentyl-1,3,4-thiadiazole] here?
The IC50 was 23.3 nM.

For CC(C)(c1ccc(Cl)cc1)c1nnc(-c2nn(-c3ccc(Cl)cc3Cl)c(-c3ccc(Cl)cc3)c2Br)s1 [Example 546, 2-(4-bromo-5-(4-chlorophenyl)-1-(2,4-dichlorophenyl)-1H-pyrazol-3-yl)-5-(2-(4-chlorophenyl)propan-2-yl)-1,3,4-thiadiazole], which IC50 is on record?
The IC50 was 29.5 nM.

Which IC50 does the source give for Clc1ccc(-c2c(Br)c(-c3nnc(C4(c5ccc(Cl)cc5)CC4)s3)nn2-c2ccc(Cl)cc2Cl)cc1 [Example 547, 2-(4-bromo-5-(4-chlorophenyl)-1-(2,4-dichlorophenyl)-1H-pyrazol-3-yl)-5-(1-(4-chlorophenyl)cyclopropyl)-1,3,4-thiadiazole] here?
The IC50 was 12.9 nM.

With CCCn1nnnc1-c1nn(-c2ccc(Cl)cc2Cl)c(-c2ccc(Cl)cc2)c1C [Example 565, 5-(5-(4-Chlorophenyl)-1-(2,4-dichlorophenyl)-4-methyl-1H-pyrazol-3-yl)-1-propyl-1H-tetrazole] as the compound, how does the IC50 read?
Its IC50 is 68.9 nM.

Which IC50 does the source give for CCCn1nnc(-c2nn(-c3ccc(Cl)cc3Cl)c(-c3ccc(Cl)cc3)c2C)n1 [Example 566, 5-(5-(4-Chlorophenyl)-1-(2,4-dichlorophenyl)-4-methyl-1H-pyrazol-3-yl)-2-propyl-2H-tetrazole] here?
Its IC50 is 62.1 nM.

How did the IC50 turn out when CCn1nnnc1-c1nn(-c2ccc(Cl)cc2Cl)c(-c2ccc(Cl)cc2)c1C [Example 569, 5-(5-(4-Chlorophenyl)-1-(2,4-dichlorophenyl)-4-methyl-1H-pyrazol-3-yl)-1-ethyl-1H-tetrazole] was run?
Its IC50 is 202 nM.

For CCCCCn1nnnc1-c1nn(-c2ccc(Cl)cc2Cl)c(-c2ccc(Cl)cc2)c1C [Example 573, 5-(5-(4-Chlorophenyl)-1-(2,4-dichlorophenyl)-4-methyl-1H-pyrazol-3-yl)-1-pentyl-1H-tetrazole], which IC50 is on record?
Its IC50 is 184 nM.

CCCCCn1nnc(-c2nn(-c3ccc(Cl)cc3Cl)c(-c3ccc(Cl)cc3)c2C)n1 [Example 574, 5-(5-(4-Chlorophenyl)-1-(2,4-dichlorophenyl)-4-methyl-1H-pyrazol-3-yl)-2-pentyl-2H-tetrazole] was tested. Which IC50 did it give?
Its IC50 is 122 nM.

For Cc1c(-c2nnnn2C(C)C)nn(-c2ccc(Cl)cc2Cl)c1-c1ccc(Cl)cc1 [Example 575, 5-(5-(4-Chlorophenyl)-1-(2,4-dichlorophenyl)-4-methyl-1H-pyrazol-3-yl)-1-isopropyl-1H-tetrazole], which IC50 is on record?
The IC50 was 166 nM.

How did the IC50 turn out when Cc1c(-c2nnn(C(C)C)n2)nn(-c2ccc(Cl)cc2Cl)c1-c1ccc(Cl)cc1 [Example 576, 5-(5-(4-Chlorophenyl)-1-(2,4-dichlorophenyl)-4-methyl-1H-pyrazol-3-yl)-2-isopropyl-2H-tetrazole] was run?
Its IC50 is 101 nM.

Which IC50 does the source give for Cc1c(-c2nnnn2C2CCCC2)nn(-c2ccc(Cl)cc2Cl)c1-c1ccc(Cl)cc1 [Example 577, 5-(5-(4-Chlorophenyl)-1-(2,4-dichlorophenyl)-4-methyl-1H-pyrazol-3-yl)-1-cyclopentyl-1H-tetrazole] here?
Its IC50 is 26.5 nM.

For Cc1c(-c2nnn(C3CCCC3)n2)nn(-c2ccc(Cl)cc2Cl)c1-c1ccc(Cl)cc1 [Example 578, 5-(5-(4-Chlorophenyl)-1-(2,4-dichlorophenyl)-4-methyl-1H-pyrazol-3-yl)-2-cyclopentyl-2H-tetrazole], which IC50 is on record?
Its IC50 is 67.9 nM.

Which IC50 does the source give for Cc1c(-c2nnn(C3CCCCC3)n2)nn(-c2ccc(Cl)cc2Cl)c1-c1ccc(Cl)cc1 [Example 580, 5-(5-(4-Chlorophenyl)-1-(2,4-dichlorophenyl)-4-methyl-1H-pyrazol-3-yl)-2-cyclohexyl-2H-tetrazole] here?
Its IC50 is 75.8 nM.

Which IC50 does the source give for Cc1c(-c2nnn(Cc3ccccc3)n2)nn(-c2ccc(Cl)cc2Cl)c1-c1ccc(Cl)cc1 [Example 582, 2-Benzyl-5-(5-(4-chlorophenyl)-1-(2,4-dichlorophenyl)-4-methyl-1H-pyrazol-3-yl)-2H-tetrazole] here?
Its IC50 is 105 nM.

For Cc1c(-c2nnnn2Cc2ccccn2)nn(-c2ccc(Cl)cc2Cl)c1-c1ccc(Cl)cc1 [Example 583, 2-((5-(5-(4-Chlorophenyl)-1-(2,4-dichlorophenyl)-4-methyl-1H-pyrazol-3-yl)-1H-tetrazol-1-yl)methyl)pyridine], which IC50 is on record?
The IC50 was 105 nM.
